Where “and” joins values, the source holds several entries; their conditions need not be identical. Identical values can stand only once.
Assays:
T. brucei = assay: DNA configuration by fluorescence microscopy after DAPI staining; assay type: cell-based; conditions: 2 × EC50, by 24 h
Text: To assess the cause of the apparent 24-h growth arrest visualized in Figure , we assessed the cellular DNA content by flow cytometry of fixed trypanosomes stained with the nucleic acid dye propidium iodide after RNase treatment. […] This indicates an inability to initiate new synthesis of nuclear DNA, while cells that already past that checkpoint were able to complete cell division. […] In T. brucei, the first phase of the cell cycle is the replication of the kinetoplast, before the subsequent duplication of the nucleus. Thus, at the start of the experiment (t = 0 h) an equal percentage of cells in the “compound 1” and “untreated control” cultures contained a single nucleus and kinetoplast (1N1K) or were in the initial stages of cell division with 2 kinetoplasts (1N2K) (Figure B). […] These observations strengthen our conclusion that treatment with 1 stops the initiation of a new cell division cycle, and specifically the replication of the kinetoplast that must precede nuclear DNA synthesis in trypanosomes. […]
The configuration of nuclei and kinetoplast DNA of treated and untreated T. brucei was visualized using a Vectashield mounting medium with the dye 4,6-diamidino-2-phenylindole (DAPI) (Vector Lab. CA, USA), as described. […] At least 500 cells were scored per slide for the number of kinetoplasts (K) and nuclei (N) as 1N1K, 1N2K, 2N2K, or other.

[1] = molecular target: T1, recombinant TAO (ΔMTS rTAO) (Trypanosoma brucei brucei, UniProt Q26710); assay: TAO inhibitory kinetics (Lineweaver–Burk / Dixon plots); assay type: biochemical, T. brucei
T1 construct: […]; SUMO (Small Ubiquitin-related Modifier) fusion from the expression system; made in house
Protocol: To determine the type of inhibition with purified TAO, the kinetic assay was carried out in the presence of varying concentrations of 1 and substrate concentrations (Ubiquinol; Q1H2) (0–600 μM), with 250 ng TAO in a 1 mL (0.5 M Tris-HCl buffer, pH 7.3) reaction mix. The results were used to construct the Michaelis–Menten plot, which was then transformed to Lineweaver–Burk plots (Figure A).
The slopes of the Lineweaver–Burk primary plot were plotted against the varying concentrations of 1. K i = −(intercept over the X-axis) of the Dixon secondary plot.
(§1) As previously described, the Ubiquinol oxidase activity measurement was carried out using recombinant TAO lacking the mitochondrial targeting signal (ΔMTS). […] The reaction was carried out in a 1 cm cuvette for 2 min using a V-630 Jasco UV–vis spectrophotometer (Jasco Corporation, Tokyo, Japan). Briefly, the procedure involves preincubating 250 ng of the enzyme for 2 min in a 50 mM Tris-HCl (pH 7.3) buffer containing the detergent octaethylene glycol monododecylether (0.05% (w/v)) in a total reaction volume of 1 mL at 25 °C. […] For the inhibition reaction, 250 ng of the enzyme was preincubated with varying inhibitor concentrations for 2 min using the same buffer before the substrate was added. […] This was achieved using the same protocol but without TAO. […] The residual activities were plotted against the corresponding inhibitor concentration in a GraphPad Prism-9 software to obtain the IC50 value.

[2] = molecular target: T1, recombinant TAO (ΔMTS rTAO); assay: Inhibition of ubiquinol oxidase activity of purified recombinant TAO; assay type: biochemical, T. brucei
Protocol: This physiologically relevant rTAO enzyme was used throughout this work and in this experiment to study the inhibitory activity of 1.
as §1

T. b. brucei STIB795/luc = assay: In vivo STIB795 mouse model of T. b. brucei infection; conditions: 5 mg/kg/day i.p. for 4 days
[3] = Microsomal stability, mouse liver microsomes; assay type: in vitro ADME; conditions: female, CD1, mouse, pH 7.4, 0.5 mg/mL microsomes, NADPH
Protocol: (§2) Pooled mixed gender human liver microsomes (HLMs) and Pooled CD1 mouse liver microsomes (female) were purchased from Tebubio. The NADPH regenerating system was purchased from Promega. All other reagents and solvents were of special or analytical grade and were commercially available. The assays were performed according to a reported protocol with small changes. […] The reactions were initiated by adding liver microsomes at a final concentration of 0.5 mg/mL in a total volume of 250 μL. […] The supernatants were analyzed with LC/MS for the amount of parent compound remaining, and the CLint and t 1/2 were determined.

[4] = Microsomal stability, human liver microsomes; assay type: in vitro ADME; conditions: both sexes, pH 7.4, 0.5 mg/mL microsomes, NADPH
Protocol: as §2

T. evansi WT = assay: Resazurin-based drug sensitivity assay, T. evansi WT; assay type: cell-based
Protocol: Other Trypanosoma species used in this study include T. evansi AntTat 3/3 (Wild-type); and T. equiperdum BoTat 1 (Bordeaux trypanozoon antigenic type 1) P (wild-type). All the trypanosomes were used only as bloodstream trypomastigotes and cultured in the standard Hirumi’s Modified Iscove’s medium #9 (HMI-9), supplemented with 10% heat-inactivated Fetal Bovine Serum (FBS), 14 μL/L β-mercaptoethanol, and 3.0 g sodium hydrogen carbonate per liter of medium (pH 7.4). Trypanosomes were cultured in vented flasks at 37 °C in a 5% CO2 atmosphere.
Briefly, this protocol involves preparing a 96-well cell culture plate with a 100 μL serially diluted test compound (200 μM top concentration) in HMI-9 + 10% FBS (24 wells per control drug or test compound, with the 24th well serving as drug-free). This is followed by adjusting the cell density of mid-log-phase trypanosome cultures to the required concentration of 2 × 10^5 cells/mL (2 × 10^4 cells/well). […] All incubations were carried out at 37 °C with 5% CO2. […] EC50 values were calculated using GraphPad Prism 9.0 software via nonlinear regression with an equation for a sigmoidal dose–response curve with variable slope (GraphPad Software Inc., San Diego, CA, USA).

T. b. brucei SUR10 = assay: microbe, parasite or virus in culture; assay type: cell-based; conditions: Trypanosoma brucei, read-out: SUR10 EC50
[5] = tested on: Human Embryonic Kidney (HEK) 293-T cells; assay: Cytotoxicity assay using Human Embryonic Kidney (HEK) 293 cells
Protocol: In brief, HEK cells were grown in a culture made of 500 mL Dulbecco’s Modified Eagle’s Medium (DMEM) (Sigma), 50 mL New-born Calf Serum (NBCS) (Gibco), 5 mL L-Glutamax (200 mM, Gibco), and 5 mL Penicillin/ [...

T1 sequence (Q26710 26-329, stated change not applied): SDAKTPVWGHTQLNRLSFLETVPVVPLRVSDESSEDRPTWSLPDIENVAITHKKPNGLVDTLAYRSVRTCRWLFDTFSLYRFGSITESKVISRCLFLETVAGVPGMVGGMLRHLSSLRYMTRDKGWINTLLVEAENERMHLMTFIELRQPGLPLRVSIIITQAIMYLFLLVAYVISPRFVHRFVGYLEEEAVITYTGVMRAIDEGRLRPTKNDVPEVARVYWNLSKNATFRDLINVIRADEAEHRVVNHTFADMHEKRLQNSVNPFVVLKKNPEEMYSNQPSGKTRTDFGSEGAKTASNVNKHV

Cc1cc(O)ccc1C(=O)OCCCCCCCCCCCCCC[P+](c1ccccc1)(c1ccccc1)c1ccccn1.[Br-] [Compound 1, {14-[(4-Hydroxy-2-methylbenzoyl)-oxy]-tetradecyl}-diphenyl(pyridin-2-yl)-Phosphonium Bromide]
Percentage of 1N1K cells (T. brucei): 100%
Ki [1]: 3.46 nM
Vmax of TAO in the presence of inhibitor ([1]; 5 nM inhibitor): 34.7 µmol/min/mg
Vmax of TAO in the presence of inhibitor ([1]; 10 nM inhibitor): 21.4 µmol/min/mg
Vmax of TAO in the presence of inhibitor ([1]; 15 nM inhibitor): 13.0 µmol/min/mg
Type of inhibition of TAO ([1]; Lineweaver–Burk plot): noncompetitive
IC50 [2]: 1.3 ± 0.07 nM
In vivo efficacy (extension of lifespan) (T. b. brucei STIB795/luc): no in vivo efficacy
microsomal CLint at 1 μM ([3]; read-out: CLint,met in mouse microsomes): 293 ± 19 µL/min/mg
half-life at 1 μM ([3]; read-out: t1/2 in mouse microsomes): 4.6 min
microsomal CLint at 1 μM ([4]; read-out: CLint,met in human microsomes): 216 ± 2.3 µL/min/mg
half-life at 1 μM ([4]; read-out: t1/2 in human microsomes): 6.2 min
EC50 (T. evansi WT): 1.2 ± 0.1 nM
EC50 (T. b. brucei SUR10): 3.6 ± 0.9 nM
SI (selectivity index) for T. congolense [5]: 182
HEK EC50 (CC50, cytotoxicity) ([5]; HEK 293-T cells, n = 3): 7490 nM and 7490 ± 100 nM
HEK SI (selectivity index) ([5]; SI = CC50 of HEK/EC50 of T. b. b WT (no glycerol)): 2385

Reference: paper PMC12406258, “Uncovering the Unusual Inhibition Mechanism of a Trypanosome Alternative Oxidase Inhibitor Displaying Broad-Spectrum Activity against African Animal Trypanosomes” (Journal of Medicinal Chemistry, 2025)
